Earlier results, collected in US7837990B2, “In vivo expanded NKT cells and methods of use thereof” (The Rockefeller University, priority 2005, dated 2010).

Key:
NKT cells = conditions: patients with advanced cancer or healthy volunteers
tumor = conditions: mouse models

## CCCCCCCCCCCCCCCCCCCCCCCCCC(=O)N[C@@H](CO[C@H]1O[C@H](CO)[C@H](O)[C@H](O)[C@H]1O)[C@H](O)[C@H](O)CCCCCCCCCCCCCC [KRN-7000, α-galactosyl ceramide]
NKT cells
  NKT activation in vivo: transient NKT activation in some individuals
tumor
  anti-tumor effect: tumor regression in several mouse models
